# According to PubChem BioAssay (NCI):
# Values joined by “and” are separate entries in the source; they are usually repeats but may differ in a detail not shown here. Identical values can stand only once.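 These data come from cells grown in 96-well plates and exposed to compound for 48 hours at five concentrations. Abbreviation: GI50, concentration required for 50% inhibition of growth. TGI marks complete inhibition of growth.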
# Legend:
# Assay in all cases: NCI anticancer screen, dose series, 48 h
# UACC-257 melanoma = test system: UACC-257 melanoma
# UACC-62 melanoma = test system: UACC-62 melanoma
# SF-268 CNS = test system: SF-268 CNS
# M19-MEL melanoma = test system: M19-MEL melanoma
# MALME-3M melanoma = test system: MALME-3M melanoma
# HL-60(TB) leukemia = test system: HL-60(TB) leukemia
# NCI-H460 lung = test system: NCI-H460 lung
# DMS 273 small cell lung = test system: DMS 273 small cell lung
# MDA-MB-435 = test system: MDA-MB-435
# MCF7 breast = test system: MCF7 breast
Compound,TGI (UACC-257 melanoma),TGI (UACC-62 melanoma),TGI (SF-268 CNS),TGI (M19-MEL melanoma) [µM],TGI (MALME-3M melanoma),TGI (HL-60(TB) leukemia),TGI (NCI-H460 lung),TGI (DMS 273 small cell lung) [µM],GI50 (HL-60(TB) leukemia),GI50 (UACC-257 melanoma) [µM],GI50 (UACC-62 melanoma),GI50 (NCI-H460 lung),GI50 (SF-268 CNS),GI50 (MDA-MB-435),TGI (MDA-MB-435),GI50 (MCF7 breast),TGI (MCF7 breast),GI50 (MALME-3M melanoma) [nM]
Nc1ccc(-c2cc(C(=O)Nc3nccs3)[nH]c(=S)n2)cc1,> 100 µM,> 100 µM,> 100 µM,> 100,> 100 µM,,,,,,,,,,,,,
O=C1C(=C2CCCC2)CCC1CN1CCCCC1 (configuration not stated),34.8 µM,34 µM,37.5 µM,> 100,30.5 µM,21.9 µM,,,,,,,,,,,,
CCC/C=C\C=C\C1(NS(=O)(=O)c2ccc(C)cc2)CCC(C(C)(C)C)CC1 (configuration not stated),39 µM,88.7 µM,40 µM,44.9,47.9 µM,23.2 µM,36.2 µM,27.9,,,,,,,,,,
O=[N+]([O-])c1cccc(-c2nc(-c3ccc(Cl)cc3Cl)cn2-c2ccccc2)c1,10.7 µM,> 33.3 µM,5.5 µM,,2.11 µM,> 33.3 µM,1.12 µM,,> 33300 nM,1.41,6.73 µM,598 nM,1140 nM,763 nM,2.71 µM,909 nM,4.02 µM,704
OB(O)c1ccccc1C#Cc1ccccc1B(O)O,17.3 µM,30.8 µM,46.9 µM,,44.2 µM,> 100 µM,48.2 µM,,,,,,,,49 µM,,31.3 µM,
CNCC/C=C1\c2cc3c(cc2-c2c1c1cc(OC)c(OC)cc1c(=O)n2C)OCO3,12.4 µM,2.3 µM,25.1 µM,,4.59 µM,2.57 µM,5.97 µM,,239 nM,3.13,0.344 µM,196 nM,992 nM,836 nM,15 µM,161 nM,> 36.9 µM,419
CCOC(=O)Nc1nc2ccccc2[nH]1,> 100 µM,> 100 µM,> 100 µM,,> 100 µM,6.64 µM and > 20.1 µM,> 100 µM,,2640 nM and 2020 nM,3.77,5.38 µM and 4.46 µM,4270 nM and 3600 nM,> 100000 nM,1280 nM and 674 nM,4 µM,3630 nM and 3150 nM,> 100 µM,5180
Cc1cc(C(=O)Nc2n[nH]c3ccccc23)n[nH]1,> 100 µM,> 100 µM,> 100 µM,,> 100 µM,> 100 µM,> 100 µM,,75200 nM,> 100,> 100 µM,> 100000 nM,> 100000 nM,> 100000 nM,> 100 µM,> 100000 nM,> 100 µM,> 100000
Cc1ccc(S(=O)(=O)NC(=O)NCCc2ccccc2)cc1,88.2 µM,> 100 µM,> 100 µM,> 100,> 100 µM,> 100 µM,> 100 µM,,,,,,,,,,,
CN1CCN(c2ccc(OC(F)(F)F)c(Nc3ncc4c(n3)-c3c(c(C(N)=O)nn3CCO)CC4)c2)CC1,28.6 µM and > 6.61 µM,21.1 µM and > 4.66 µM,20.3 µM and > 10 µM,,29.8 µM and > 10 µM,0.0744 µM,14.9 µM and > 10 µM,,23.7 nM and 29.8 nM,,0.0454 µM and 0.123 µM,39.1 nM and 84.9 nM,66.1 nM and 229 nM,16.5 nM and 18.8 nM,0.0542 µM and 0.0634 µM,23.5 nM and 35.7 nM,15.7 µM and > 10 µM,
